COC(=O)[C@@H](N)CC(C)C.Cl
solubility (mole fraction) (in 1,4-dioxane, 288.15 K): 0.0539 | solubility (mole fraction) (in 1,4-dioxane, 293.15 K): 0.0579 | solubility (mole fraction) (in 1,4-dioxane, 298.15 K): 0.0621 | solubility (mole fraction) (in 1,4-dioxane, 303.15 K): 0.0715 | solubility (mole fraction) (in 1,4-dioxane, 308.15 K): 0.0799 | solubility (mole fraction) (in 1,4-dioxane, 313.15 K): 0.0918 | solubility (mole fraction) (in 1,4-dioxane, 318.15 K): 0.11 | solubility (mole fraction) (in 1,4-dioxane, 323.15 K): 0.127 | solubility (mole fraction) (in 1,4-dioxane, 328.15 K): 0.158 | solubility (mole fraction) (in 2-butanone, 283.15 K): 0.00114 | solubility (mole fraction) (in 2-butanone, 288.15 K): 0.00125 | solubility (mole fraction) (in 2-butanone, 293.15 K): 0.00141 | solubility (mole fraction) (in 2-butanone, 298.15 K): 0.00158 | solubility (mole fraction) (in 2-butanone, 303.15 K): 0.00186 | solubility (mole fraction) (in 2-butanone, 308.15 K): 0.00238 | solubility (mole fraction) (in 2-butanone, 313.15 K): 0.00297 | solubility (mole fraction) (in 2-butanone, 318.15 K): 0.00388 | solubility (mole fraction) (in 2-butanone, 323.15 K): 0.00524 | solubility (mole fraction) (in acetone, 283.15 K): 0.00343 | solubility (mole fraction) (in acetone, 288.15 K): 0.00389 | solubility (mole fraction) (in acetone, 293.15 K): 0.00451 | solubility (mole fraction) (in acetone, 298.15 K): 0.00562 | solubility (mole fraction) (in acetone, 303.15 K): 0.00661 | solubility (mole fraction) (in acetone, 308.15 K): 0.00806 | solubility (mole fraction) (in acetone, 313.15 K): 0.01 | solubility (mole fraction) (in acetone, 318.15 K): 0.0129 | solubility (mole fraction) (in acetone, 323.15 K): 0.0172 | solubility (mole fraction) (in acetonitrile, 283.15 K): 0.00109 | solubility (mole fraction) (in acetonitrile, 288.15 K): 0.00154 | solubility (mole fraction) (in acetonitrile, 293.15 K): 0.00205 | solubility (mole fraction) (in acetonitrile, 298.15 K): 0.00313 | solubility (mole fraction) (in acetonitrile, 303.15 K): 0.00401 | solubility (mole fraction) (in acetonitrile, 308.15 K): 0.0051 | solubility (mole fraction) (in acetonitrile, 313.15 K): 0.00776 | solubility (mole fraction) (in acetonitrile, 318.15 K): 0.011 | solubility (mole fraction) (in acetonitrile, 323.15 K): 0.0162 | solubility (mole fraction) (in dimethyl carbonate, 283.15 K): 0.000287 | solubility (mole fraction) (in dimethyl carbonate, 288.15 K): 0.000319 | solubility (mole fraction) (in dimethyl carbonate, 293.15 K): 0.00038 | solubility (mole fraction) (in dimethyl carbonate, 298.15 K): 0.000478 | solubility (mole fraction) (in dimethyl carbonate, 303.15 K): 0.000629 | solubility (mole fraction) (in dimethyl carbonate, 308.15 K): 0.000924 | solubility (mole fraction) (in dimethyl carbonate, 313.15 K): 0.00127 | solubility (mole fraction) (in dimethyl carbonate, 318.15 K): 0.00167 | solubility (mole fraction) (in dimethyl carbonate, 323.15 K): 0.00213 | solubility (mole fraction) (in ethyl acetate, 283.15 K): 0.000226 | solubility (mole fraction) (in ethyl acetate, 288.15 K): 0.000237 | solubility (mole fraction) (in ethyl acetate, 293.15 K): 0.000277 | solubility (mole fraction) (in ethyl acetate, 298.15 K): 0.000342 | solubility (mole fraction) (in ethyl acetate, 303.15 K): 0.000421 | solubility (mole fraction) (in ethyl acetate, 308.15 K): 0.000593 | solubility (mole fraction) (in ethyl acetate, 313.15 K): 0.000729 | solubility (mole fraction) (in ethyl acetate, 318.15 K): 0.000892 | solubility (mole fraction) (in ethyl acetate, 323.15 K): 0.00124 | solubility (mole fraction) (in isopropyl acetate, 283.15 K): 0.000136 | solubility (mole fraction) (in isopropyl acetate, 288.15 K): 0.000152 | solubility (mole fraction) (in isopropyl acetate, 293.15 K): 0.000178 | solubility (mole fraction) (in isopropyl acetate, 298.15 K): 0.000219 | solubility (mole fraction) (in isopropyl acetate, 303.15 K): 0.000246 | solubility (mole fraction) (in isopropyl acetate, 308.15 K): 0.00029 | solubility (mole fraction) (in isopropyl acetate, 313.15 K): 0.000358 | solubility (mole fraction) (in isopropyl acetate, 318.15 K): 0.000429 | solubility (mole fraction) (in isopropyl acetate, 323.15 K): 0.000561 | solubility (mole fraction) (in methyl acetate, 283.15 K): 0.000388 | solubility (mole fraction) (in methyl acetate, 288.15 K): 0.000472 | solubility (mole fraction) (in methyl acetate, 293.15 K): 0.000629 | solubility (mole fraction) (in methyl acetate, 298.15 K): 0.000834 | solubility (mole fraction) (in methyl acetate, 303.15 K): 0.00105 | solubility (mole fraction) (in methyl acetate, 308.15 K): 0.00138 | solubility (mole fraction) (in methyl acetate, 313.15 K): 0.0019 | solubility (mole fraction) (in methyl acetate, 318.15 K): 0.00244 | solubility (mole fraction) (in methyl acetate, 323.15 K): 0.00347 | solubility (mole fraction) (in n-butanol, 283.15 K): 0.0885 | solubility (mole fraction) (in n-butanol, 288.15 K): 0.0916 | solubility (mole fraction) (in n-butanol, 293.15 K): 0.0983 | solubility (mole fraction) (in n-butanol, 298.15 K): 0.109 | solubility (mole fraction) (in n-butanol, 303.15 K): 0.123 | solubility (mole fraction) (in n-butanol, 308.15 K): 0.139 | solubility (mole fraction) (in n-butanol, 313.15 K): 0.155 | solubility (mole fraction) (in n-butanol, 318.15 K): 0.171 | solubility (mole fraction) (in n-butanol, 323.15 K): 0.196 | solubility (mole fraction) (in n-hexane, 283.15 K): 0.000296 | solubility (mole fraction) (in n-hexane, 288.15 K): 0.000331 | solubility (mole fraction) (in n-hexane, 293.15 K): 0.000371 | solubility (mole fraction) (in n-hexane, 298.15 K): 0.000433 | solubility (mole fraction) (in n-hexane, 303.15 K): 0.000505 | solubility (mole fraction) (in n-hexane, 308.15 K): 0.00063 | solubility (mole fraction) (in n-hexane, 313.15 K): 0.000782 | solubility (mole fraction) (in n-hexane, 318.15 K): 0.000983 | solubility (mole fraction) (in n-hexane, 323.15 K): 0.0012 | solubility (mole fraction) (in n-pentanol, 283.15 K): 0.0571 | solubility (mole fraction) (in n-pentanol, 288.15 K): 0.062 | solubility (mole fraction) (in n-pentanol, 293.15 K): 0.0696 | solubility (mole fraction) (in n-pentanol, 298.15 K): 0.0787 | solubility (mole fraction) (in n-pentanol, 303.15 K): 0.0917 | solubility (mole fraction) (in n-pentanol, 308.15 K): 0.104 | solubility (mole fraction) (in n-pentanol, 313.15 K): 0.121 | solubility (mole fraction) (in n-pentanol, 318.15 K): 0.137 | solubility (mole fraction) (in n-pentanol, 323.15 K): 0.156 | solubility (mole fraction) (in n-propyl acetate, 283.15 K): 0.00123 | solubility (mole fraction) (in n-propyl acetate, 288.15 K): 0.00129 | solubility (mole fraction) (in n-propyl acetate, 293.15 K): 0.00145 | solubility (mole fraction) (in n-propyl acetate, 298.15 K): 0.00189 | solubility (mole fraction) (in n-propyl acetate, 303.15 K): 0.00234 | solubility (mole fraction) (in n-propyl acetate, 308.15 K): 0.00292 | solubility (mole fraction) (in n-propyl acetate, 313.15 K): 0.0036 | solubility (mole fraction) (in n-propyl acetate, 318.15 K): 0.00455 | solubility (mole fraction) (in n-propyl acetate, 323.15 K): 0.00541

— BigSolDB 2.1
